Data on six compounds can be found in patent publication US20230287051A1, “INHIBITORS OF COMPLEMENT FACTOR C3 AND THEIR MEDICAL USES” (ZP SPV 3 K/S, priority 2020, published 2023).

Numbered stars: 1 amine (or outer) side, 2 acyl side, 3 side chain; on linkers, the order of the positions; unused ones are H or OH. Bridge positions count the residues as written; N and C are the ends. Square brackets hold non-standard residues; d marks the D form. Side chains are listed from the residue outwards. Peptide text beside a SMILES is read from it. * marks the point of attachment. Trp(1-Me) = Cn1cc(C[C@H](N)C(=O)O)c2ccccc21; C18 diacid = O=C(O)CCCCCCCCCCCCCCCCC(=O)*; γGlu = O=C(O)[C@H](CCC(=O)[*:2])N[*:1]; AEEA = NCCOCCOCC(=O)O; CH2 = C([*:1])[*:2]; Sar = CNCC(=O)O Some results are limits rather than exact numbers.

The assay concerns classical complement pathway. The experiment in a line: In vitro haemolysis assay (inhibition of classical complement pathway). The format is cell-based. The conditions noted are these: human serum, sensitized sheep RBC, 30 minutes at 37° C., absorbance at 405 nm, n=>2; read-out: IC50, inhibition of hemolysis. On the procedure: The in vitro effect of some of the compounds described herein was assessed by measuring their inhibitory effect of the classical complement pathway in a haemolysis assay.
Briefly, compounds described herein and reference compounds were dissolved in DMSO and diluted in Tris/Casein Assay Buffer (10 mM Tris, 145 mM NaCl, 0.5 mM MgCl2, 0.15 mM CaCl2, and 0.1% W/V casein, adjusted to pH 7.4) as 9-point serial dilutions in a 96-well plate. Sensitized sheep red blood cells (RBC) coated with rabbit anti-sheep erythrocyte antiserum (Complement Technology, Inc., TX, USA) were washed in Tris/asein Assay Buffer. 50 μL from each well of diluted compound was added to a 96-well plate containing 50 μL diluted human serum (Complement Technology, Inc., TX, USA) and incubated for 15 minutes at room temperature. The serum dilution factor was optimized for every serum batch to obtain 70-90% of maximal haemolysis using the protocol. Then 50 μL sensitized sheep RBCs were added to all wells ([…]).
After 30 minutes of incubation at 37° C. with gentle agitation, the reaction was stopped by addition of 50 μL Tris STOP Buffer per well (10 mM EDTA, 10 mM Tris, 145 mM NaCl adjusted to pH 7.4). The RBCs were then removed by centrifugation and the resulting supernatant measured for hemolysis by absorbance at 405 nm.
The response was normalized relative to a positive and negative control (vehicle) to calculate the IC50 (nM) from the concentration response curve using the 4-parameter logistic (4PL) nonlinear model for curve fitting (Table 2). All values are based on n=>2 independent determinations.
With “Ac-SEF[C(1)]IWQDW[Sar]EHR[C(1)]TEGE[Peg3]ES-K([17-Carboxy-heptadecanoyl][yGlu])-NH2 [Compound 16]”, the half-maximal inhibitory concentration (IC50) is below 1000 nM.

On to “Ac-YEQAF[C(1)]I[1-Me-Trp]QDW[Sar]EHR[C(1)]TEGE[Peg3]ES-K([17-Carboxy-heptadecanoyl][yGlu]G[yGlu])-NH2 [Compound 30]”, for which the IC50 is below 100 nM. Consider `CC[C@H](C)[C@@H]1NC(=O)[C@@H](NC(=O)[C@H](Cc2ccccc2)NC(=O)[C@H](CCC(=O)O)NC(=O)[C@H](CCC(N)=O)NC(=O)[C@H](CCCCN)NC(=O)[C@H](CO)NC(C)=O)CSCSC[C@@H](C(=O)N[C@H](C(=O)N[C@@H](CCC(=O)O)C(=O)NCC(=O)N[C@@H](CCC(=O)O)C(=O)NCCOCCOCC(=O)NCCOCCOCC(=O)N[C@@H](CCCCNC(=O)CC[C@H](NC(=O)CNC(=O)CC[C@H](NC(=O)CCCCCCCCCCCCCCCCC(=O)O)C(=O)O)C(=O)O)C(N)=O)[C@@H](C)O)NC(=O)[C@H](CCCNC(=N)N)NC(=O)[C@H](Cc2c[nH]cn2)NC(=O)[C@H](CCC(=O)O)NC(=O)CN(C)C(=O)[C@H](Cc2c[nH]c3ccccc23)NC(=O)[C@H](CC(=O)O)NC(=O)[C@H](CCC(N)=O)NC(=O)[C@H](Cc2cn(C)c3ccccc23)NC1=O` [Compound 26, Ac-SKQEF[C(1)]I[1-Me-Trp]QDW[Sar]EHR[C(1)]TEGE[Peg3][Peg3]-K([17-Carboxy-heptadecanoyl][yGlu]G[yGlu])-NH2] (Ac-SKQEFCI[Trp(1-Me)]QDW[Sar]EHRCTEGE[AEEA][AEEA]K([γGlu-Gly-γGlu-C18 diacid])-NH2; linker 6-16 via CH2), for which the IC50 is below 100 nM. To `CC[C@H](C)[C@@H]1NC(=O)[C@@H](NC(=O)[C@@H](NC(=O)[C@@H](Cc2ccc(O)cc2)NC(C)=O)[C@@H](C)CC)CSCSC[C@@H](C(=O)N[C@H](C(=O)N[C@@H](CCC(=O)O)C(=O)NCC(=O)N[C@@H](CCC(=O)O)C(=O)NCCOCCOCC(=O)N[C@@H](CCC(=O)O)C(=O)N[C@@H](CO)C(=O)N[C@@H](CCCCNC(=O)CC[C@H](NC(=O)CCCCCCCCCCCCCCCCC(=O)O)C(=O)O)C(N)=O)[C@@H](C)O)NC(=O)[C@H](CCCNC(=N)N)NC(=O)[C@H](Cc2c[nH]cn2)NC(=O)[C@H](CCC(=O)O)NC(=O)CN(C)C(=O)[C@H](Cc2c[nH]c3ccccc23)NC(=O)[C@H](CC(=O)O)NC(=O)[C@H](CCC(N)=O)NC(=O)[C@H](Cc2cn(C)c3ccccc23)NC1=O` [Compound 15, Ac-{d}YI[C(1)]I[1-Me-Trp]QDW[Sar]EHR[C(1)]TEGE[Peg3]ES-K([17-Carboxy-heptadecanoyl][yGlu])-NH2] (Ac-[dY]ICI[Trp(1-Me)]QDW[Sar]EHRCTEGE[AEEA]ESK([γGlu-C18 diacid])-NH2; linker 3-13 via CH2) belongs below 250 nM; to `CC[C@H](C)[C@@H]1NC(=O)[C@@H](NC(=O)[C@H](Cc2ccccc2)NC(=O)[C@@H](NC(=O)[C@H](CCC(N)=O)NC(=O)[C@H](CCC(=O)O)NC(=O)[C@H](CO)NC(=O)[C@H](CCC(=O)O)NC(C)=O)C(C)C)CSCSC[C@@H](C(=O)N[C@H](C(=O)N[C@@H](CCC(=O)O)C(=O)NCC(=O)N[C@@H](CCC(=O)O)C(=O)NCCOCCOCC(=O)NCCOCCOCC(=O)N[C@@H](CCCCNC(=O)CC[C@H](NC(=O)CNC(=O)CC[C@H](NC(=O)CCCCCCCCCCCCCCCCC(=O)O)C(=O)O)C(=O)O)C(N)=O)[C@@H](C)O)NC(=O)[C@H](CCCNC(=N)N)NC(=O)[C@H](Cc2c[nH]cn2)NC(=O)[C@H](CCC(=O)O)NC(=O)CN(C)C(=O)[C@H](Cc2c[nH]c3ccccc23)NC(=O)[C@H](CC(=O)O)NC(=O)[C@H](CCC(N)=O)NC(=O)[C@H](Cc2cn(C)c3ccccc23)NC1=O` [Compound 24, Ac-ESEQVF[C(1)]I[1-Me-Trp]QDW[Sar]EHR[C(1)]TEGE[Peg3][Peg3]-K([17-Carboxy-heptadecanoyl][yGlu]G[yGlu])-NH2] (Ac-ESEQVFCI[Trp(1-Me)]QDW[Sar]EHRCTEGE[AEEA][AEEA]K([γGlu-Gly-γGlu-C18 diacid])-NH2; linker 7-17 via CH2), below 100 nM. To “Ac-SEF[C(1)]IYQDW[Sar]EHR[C(1)]TEGE[Peg3]ES-K([17-Carboxy-heptadecanoy!][yGlu])-NH2 [Compound 17]” belongs below 500 nM.
